These results are taken from patent US11999701B1, “4,5-bis(4-chlorophenyl)-2-phenyl-1H-imidazol-1-yl as an antimicrobial compound” (KING FAISAL UNIVERSITY, priority 2023, dated 2024).

Common to all, as to assay type: cell-based
The subject of one assay is different microbes. Description: Antimicrobial activity, overall statement. Conditions: against different microbes (bacteria and fungi of Tables 1 and 2). Here is the method: The agar plate disc-diffusion method was applied. Sterilized filter papers (6 mm in diameter) were wetted with 10 μL of a solution of 4,5-bis(4-chlorophenyl)-2-phenyl-1H-imidazole (IV) to be tested, containing 10 mg/mL in DMSO, and the discs were allowed to air dry. The discs were then placed onto the surface of agar plates (nutrient agar for bacteria and Sabouraud's dextrose agar for fungi) seeded with the test organism. Each plate contained 15 mL of the agar medium, previously seeded with 0.2 mL of the broth culture of each organism pregrown for 18 hours. The plates were incubated at 37 °C for 48 h, and 72 h for fungi. The inhibition zones were measured in mm. Discs impregnated with DMSO were used as a control, and its inhibition zone was subtracted from the tested compound actual inhibition zone.

Assay [1] deals with Chrysosporium keratinophilum. Description: Agar plate disc-diffusion, antifungal activity. Here is the method: (§1) The agar plate disc-diffusion method was applied. […] The discs were then placed onto the surface of agar plates (nutrient agar for bacteria and Sabouraud's dextrose agar for fungi) seeded with the test organism. Each plate contained 15 mL of the agar medium, previously seeded with 0.2 mL of the broth culture of each organism pregrown for 18 hours. The plates were incubated at 37 °C for 48 h, and 72 h for fungi. The inhibition zones were measured in mm. Discs impregnated with DMSO were used as a control, and its inhibition zone was subtracted from the tested compound actual inhibition zone.

For the next assay, the system named is Aspergillus flavus. Nature of the assay: Agar plate disc-diffusion, antifungal activity. Here is the method:
as §1
Background: In agar diffusion tests the substance spreads into inoculated agar from a disc or well.

The test system of the next assay is Bacillus cereus. Nature of the assay: Agar plate disc-diffusion, antibacterial activity. Here is the method: as §1
Another assay concerns Staphylococcus aureus. Description: Agar plate disc-diffusion, antibacterial activity. Here is the method:
as §1

A further assay relates to Escherichia coli. Nature of the assay: Agar plate disc-diffusion, antibacterial activity. Here is the method:
as §1

The test system of the next assay is Pseudomonas aeruginosa. Description: Agar plate disc-diffusion, antibacterial activity. As to the method: as §1
[2] abbreviates: A = concentration of comp. = 10,000 μL.
Where [3] appears, read: B = concentration of comp. = 30,000 μL.
The mark [4] stands for this setting: C = concentration of comp. = 50,000 μL.

As to `Clc1ccc(-c2nc(-c3ccccc3)[nH]c2-c2ccc(Cl)cc2)cc1` [IV, 4,5-bis(4-chlorophenyl)-2-phenyl-1H-imidazole], the antimicrobial activities entry with different microbes is listed as “excellent antimicrobial activities”. Also, the inhibition zone in assay [1] (setting [2]) worked out at 26 mm; in assay [1] (setting [3]) it was 28 mm; in assay [1] (setting [4]), 46 mm; with Aspergillus flavus (setting [2]), 22 mm; with Aspergillus flavus (setting [3]) it was 25 mm; with Aspergillus flavus (setting [4]), 32 mm. In addition, the inhibition zone turned out to be 22 mm with Bacillus cereus (setting [2]); 24 mm with Bacillus cereus (setting [3]); 36 mm in the assay on Bacillus cereus (setting [4]); 20 mm in the assay with Staphylococcus aureus (setting [2]); 24 mm with Staphylococcus aureus (setting [3]); 33 mm in the assay on Staphylococcus aureus (setting [4]). Besides, the inhibition zone in the assay on Escherichia coli (setting [2]) is 27 mm; in the assay with Escherichia coli (setting [3]), 34 mm; with Escherichia coli (setting [4]), 52 mm; with Pseudomonas aeruginosa (setting [2]) it was 25 mm; with Pseudomonas aeruginosa (setting [3]) it was 28 mm; in the assay on Pseudomonas aeruginosa (setting [4]), 46 mm.
